# Reference: PubChem BioAssay AID1963964 (Molecular Pharmacology Branch, DTP, NCI, 2024)
# Tested on: 997726-040-R-J2-PDC tumor spheroids, viability
# Test: Anticancer human tumor 997726-040-R-J2-PDC patient-derived squamous cell lung carcinoma cell line growth inhibition [PI3K]
# Settings: spheroids with HUVEC and MSC; for IC50: curve of first compound; for viability, T/C: stronger effect = lower value
# Method in brief: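 Targeted small molecules plus PI3K inhibitors, half-log dose series from Cmax (default top 10 microM), were applied to heterotypic spheroids of cancer cells with HUVEC and MSCs. Viability indicated growth inhibition.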
# [1] = second compound 0.00316 µM, first compound 0.0316 µM
# [2] = second compound 0.00316 µM, first compound 0.1 µM
# [3] = second compound 0.00316 µM, first compound 0.316 µM
# [4] = second compound 0.00316 µM, first compound 1 µM
# [5] = second compound 0.00316 µM, first compound 3.16 µM
# [6] = second compound 0.00316 µM, first compound 10 µM
# [7] = second compound 0.01 µM, first compound 0.0316 µM
# [8] = second compound 0.01 µM, first compound 0.1 µM
# [9] = second compound 0.01 µM, first compound 0.316 µM
# [10] = second compound 0.01 µM, first compound 1 µM
# [11] = second compound 0.01 µM, first compound 3.16 µM
# [12] = second compound 0.01 µM, first compound 10 µM
# [13] = second compound 0.0316 µM, first compound 0.0316 µM
# [14] = second compound 0.0316 µM, first compound 0.1 µM
# [15] = second compound 0.0316 µM, first compound 0.316 µM
# [16] = second compound 0.0316 µM, first compound 1 µM
# [17] = second compound 0.0316 µM, first compound 3.16 µM
# [18] = second compound 0.0316 µM, first compound 10 µM
# [19] = second compound 0.1 µM, first compound 0.0316 µM
# [20] = second compound 0.1 µM, first compound 0.1 µM
# [21] = second compound 0.1 µM, first compound 0.316 µM
# [22] = second compound 0.1 µM, first compound 1 µM
# [23] = second compound 0.1 µM, first compound 3.16 µM
# [24] = second compound 0.1 µM, first compound 10 µM
# [25] = second compound 0.316 µM, first compound 0.0316 µM
# [26] = second compound 0.316 µM, first compound 0.1 µM
# [27] = second compound 0.316 µM, first compound 0.316 µM
# [28] = second compound 0.316 µM, first compound 1 µM
# [29] = second compound 0.316 µM, first compound 3.16 µM
# [30] = second compound 0.316 µM, first compound 10 µM
# [31] = second compound 1 µM, first compound 0.0316 µM
# [32] = second compound 1 µM, first compound 0.1 µM
# [33] = second compound 1 µM, first compound 0.316 µM
# [34] = second compound 1 µM, first compound 1 µM
# [35] = second compound 1 µM, first compound 3.16 µM
# [36] = second compound 1 µM, first compound 10 µM
# 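Further: spheroids exposed to compounds for seven days before readout.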
smiles,measurement,setting,value
C=CC(=O)N1CCN(c2nc(=O)n(-c3c(C)ccnc3C(C)C)c3nc(-c4c(O)cccc4F)c(F)cc23)C(C)C1 (stereo unspecified) + CC(Nc1ccc2c(c1)OCCn1cc(N3C(=O)OCC3C(F)F)nc1-2)C(N)=O,IC50,second compound 0.00316 µM,> 10 µM
same,IC50,second compound 0.01 µM,> 10 µM
same,IC50,second compound 0.0316 µM,> 10 µM
same,IC50,second compound 0.1 µM,< 0.0316 µM
same,IC50,second compound 0.316 µM,< 0.0316 µM
same,IC50,second compound 1 µM,< 0.0316 µM
same,"viability, T/C",[1],88.3%
same,"viability, T/C",[2],93.5%
same,"viability, T/C",[3],96.6%
same,"viability, T/C",[4],103%
same,"viability, T/C",[5],119%
same,"viability, T/C",[6],114%
same,"viability, T/C",[7],87%
same,"viability, T/C",[8],81.7%
same,"viability, T/C",[9],88.5%
same,"viability, T/C",[10],81.7%
same,"viability, T/C",[11],106%
same,"viability, T/C",[12],98.8%
same,"viability, T/C",[13],60.2%
same,"viability, T/C",[14],63.4%
same,"viability, T/C",[15],67.5%
same,"viability, T/C",[16],67.2%
same,"viability, T/C",[17],72.1%
same,"viability, T/C",[18],82.3%
same,"viability, T/C",[19],43.7%
same,"viability, T/C",[20],47.3%
same,"viability, T/C",[21],43.3%
same,"viability, T/C",[22],49.1%
same,"viability, T/C",[23],54.4%
same,"viability, T/C",[24],48.4%
same,"viability, T/C",[25],31.6%
same,"viability, T/C",[26],32.8%
same,"viability, T/C",[27],33.8%
same,"viability, T/C",[28],33.4%
same,"viability, T/C",[29],37.7%
same,"viability, T/C",[30],33.5%
same,"viability, T/C",[31],26.7%
same,"viability, T/C",[32],27.5%
same,"viability, T/C",[33],29.5%
same,"viability, T/C",[34],26.7%
same,"viability, T/C",[35],30%
same,"viability, T/C",[36],27.2%
CC(Cn1ccc(-c2ccc(C#N)c(Cl)c2)n1)NC(=O)c1cc(C(C)O)[nH]n1 (stereo unspecified) + CC(Nc1ccc2c(c1)OCCn1cc(N3C(=O)OCC3C(F)F)nc1-2)C(N)=O,IC50,second compound 0.00316 µM,> 10 µM
same,IC50,second compound 0.01 µM,> 10 µM
same,IC50,second compound 0.0316 µM,> 10 µM
same,IC50,second compound 0.1 µM,< 0.0316 µM
same,IC50,second compound 0.316 µM,< 0.0316 µM
same,IC50,second compound 1 µM,< 0.0316 µM
same,"viability, T/C",[1],85.8%
same,"viability, T/C",[2],88.3%
same,"viability, T/C",[3],89.4%
same,"viability, T/C",[4],91.4%
same,"viability, T/C",[5],97.3%
same,"viability, T/C",[6],85.4%
same,"viability, T/C",[7],78.3%
same,"viability, T/C",[8],81%
same,"viability, T/C",[9],80%
same,"viability, T/C",[10],84.5%
same,"viability, T/C",[11],84.1%
same,"viability, T/C",[12],89.4%
same,"viability, T/C",[13],61.1%
same,"viability, T/C",[14],70.2%
same,"viability, T/C",[15],67.3%
same,"viability, T/C",[16],62.6%
same,"viability, T/C",[17],63.8%
same,"viability, T/C",[18],64.7%
same,"viability, T/C",[19],48.5%
same,"viability, T/C",[20],45.5%
same,"viability, T/C",[21],54.1%
same,"viability, T/C",[22],51.4%
same,"viability, T/C",[23],47.3%
same,"viability, T/C",[24],48.2%
same,"viability, T/C",[25],39%
same,"viability, T/C",[26],32.9%
same,"viability, T/C",[27],32.8%
same,"viability, T/C",[28],33.7%
same,"viability, T/C",[29],35.8%
same,"viability, T/C",[30],31.5%
same,"viability, T/C",[31],31.1%
same,"viability, T/C",[32],26.7%
same,"viability, T/C",[33],26.6%
same,"viability, T/C",[34],30.5%
same,"viability, T/C",[35],28.6%
same,"viability, T/C",[36],24.5%
Cn1nccc1Nc1nccc(-c2ccn(C(CO)c3ccc(Cl)c(F)c3)c(=O)c2)n1 (stereo unspecified) + CC(Nc1ccc2c(c1)OCCn1cc(N3C(=O)OCC3C(F)F)nc1-2)C(N)=O,IC50,second compound 0.00316 µM,> 10 µM
same,IC50,second compound 0.01 µM,4.67 µM
same,IC50,second compound 0.0316 µM,0.601 µM
same,IC50,second compound 0.1 µM,< 0.0316 µM
same,IC50,second compound 0.316 µM,< 0.0316 µM
same,IC50,second compound 1 µM,< 0.0316 µM
same,"viability, T/C",[1],93%
same,"viability, T/C",[2],75.4%
same,"viability, T/C",[3],63.5%
same,"viability, T/C",[4],64.3%
same,"viability, T/C",[5],55.9%
same,"viability, T/C",[6],49.4%
same,"viability, T/C",[7],74.5%
same,"viability, T/C",[8],72.6%
same,"viability, T/C",[9],70.2%
same,"viability, T/C",[10],58.9%
same,"viability, T/C",[11],58.7%
same,"viability, T/C",[12],39.6%
same,"viability, T/C",[13],65.2%
same,"viability, T/C",[14],57.5%
same,"viability, T/C",[15],52%
same,"viability, T/C",[16],47.3%
same,"viability, T/C",[17],43.9%
same,"viability, T/C",[18],31.8%
same,"viability, T/C",[19],44.6%
same,"viability, T/C",[20],39.5%
same,"viability, T/C",[21],34.8%
same,"viability, T/C",[22],32%
same,"viability, T/C",[23],33.5%
same,"viability, T/C",[24],23.6%
same,"viability, T/C",[25],35.5%
same,"viability, T/C",[26],34.4%
same,"viability, T/C",[27],30%
same,"viability, T/C",[28],31%
same,"viability, T/C",[29],27.9%
same,"viability, T/C",[30],20%
same,"viability, T/C",[31],25.7%
same,"viability, T/C",[32],27.5%
same,"viability, T/C",[33],23%
same,"viability, T/C",[34],27%
same,"viability, T/C",[35],25.1%
same,"viability, T/C",[36],19.1%
